# Like-named read-outs stand apart in the source and are kept apart here.
# Legend:
# SIK2 = SIK2 (Homo sapiens (Human), UniProt Q9H0K1); experiment: radiometric protein kinase assay (33PanQinase Activity Assay, ProQinase Free Choice Kinase Assay); type: biochemical; conditions: ATP 1.0 uM, read-out: SIK2 IC50 rank
# SIK3 = SIK3 (Homo sapiens (Human), UniProt Q9Y2K2); experiment: as above; type: biochemical; conditions: read-out: SIK3 IC50 rank
# SIK1 = SIK1 (Homo sapiens (Human), UniProt P57059); experiment: as above; type: biochemical; conditions: ATP 3.0 uM, read-out: SIK1 IC50 rank
# M579-A2-luc tumour cells = experiment: luciferase-based tumour cell viability assay, M579-A2-luc cells with inhibitor and TNF; conditions: for tumour cell survival (RLU): in combination with 10 ng/mL TNF, about 20 to 100 nM, FIG. 18
# ABL1 wt = ABL1 wt (Homo sapiens (Human), UniProt P00519); experiment: radiometric protein kinase assay (33PanQinase Activity Assay, ProQinase Free Choice Kinase Assay); type: biochemical; conditions: indicative IC50, Table 4; ATP 0.3 uM; read-out: ABL1 IC50 rank
# SRC (GST-HIS-tag) = SRC (GST-HIS-tag) (Homo sapiens (Human), UniProt P12931); experiment: as above; type: biochemical; conditions: indicative IC50, Table 4; ATP 0.3 uM; read-out: SRC IC50 rank
# PANC-1 tumour cells [1] = experiment: Luc-CTL assay: PANC-1 cells co-cultured with TIL #1 in the presence of small molecule SIK inhibitor; conditions: FIGS. 7A and 7B
# PANC-1 tumour cells [2] = system: PANC-1 tumour cells
# M579 cells = experiment: real-time live-cell microscopy of TIL209-mediated lysis of shRNA-transduced tumour cells; type: cell-based, human; conditions: co-culture with HLA-A2.1+-matched TIL209, compared to shCtrl
# Source text: FIG. 15: Real-time live cell microscopy showing mean+/−SEM of TIL209-mediated lysis of M579 cells transduced with shCtrl or shSIK3 lentiviral constructs. The graph indicates the area of YOYO-1+ cells/well (um2/well).
# SIK3 was stably knocked down in the primary line using SIK3-specific shRNA (shSIK3) or the control non-targeting shRNA sequence (shCtrl). The shRNA sequences targeting SIK3 are set forth in Table A2, and the transduced cell lines were produced briefly as follows: lentiviral transduction particles expressing an shRNA targeting SIK3 mRNA or control shRNA (Sigma-Aldrich) were used for transduction. 5×10^4 […] cells were seeded in a 6 well plate in DMEM 10% FCS 1% P/S. After 24 h, lentiviral particles were added using multiplicity of infection (MOI)=2. 48 h from transduction, cells were put under positive selection using 0.4 μg/ml puromycin. First, the shSIK3 or shCtrl transduced tumour cells were co-cultured with HLA-A2.1+−matched TIL209, and the extent of T cell-mediated killing was monitored using in vitro real-time live-cell microscopy. […] Second, the shSIK3 and shCtrl transduced tumour cells were subcutaneously injected into the left and the right flank, respectively, of NSG immune deficient mice (FIG. 16A), and adoptive cell transfer of TIL209 or PBS injection was applied i.v. once per week (FIG. 16B Scheme).
# M579 tumours = experiment: in vivo adoptive T cell transfer model, shCtrl or shSIK3-transduced M579 tumours in NSG mice; set-up: species or system mouse
# Source text: FIG. 16: (A) Schematic representation of the in vivo mouse experiment. Subcutaneous (s.c.) implantation of shCtrl or shSIK3-transduced M579 cells was applied to the left and the right flank of immunodeficient (NOD scid gamma; NSG) mice, respectively. (B) Mice received intravenous (i.v.) injection of TIL209 (n=9) or PBS alone (n=7) at day 3, 10, 17 and 24. (C) Tumour growth curves showing mean+/−SEM of tumour volume (mm3) of shCtrl or shSIK3-engrafted M579 tumours in mice treated with either TIL209 or PBS. Statistical difference was calculated using unpaired one-side Mann-Whitney U-test. (D) Binding of TNF to TNFR1 (TNFR-I) on tumour cells results in downstream signalling cascade that involve caspase 8 cleavage, NF-kappaB nuclear translocation and SIK3 phosphorylation. NF-kappaB nuclear retention is sustained by its acetylation, and HDAC4 deacetylase acts as negative regulator of NF-kappaB. TNF stimulation increases the levels of pLKB1 which in turn results in increased SIK3 activation. […]
# SIK3 was stably knocked down in the primary line using SIK3-specific shRNA (shSIK3) or the control non-targeting shRNA sequence (shCtrl). […] First, the shSIK3 or shCtrl transduced tumour cells were co-cultured with HLA-A2.1+−matched TIL209, and the extent of T cell-mediated killing was monitored using in vitro real-time live-cell microscopy. […]
# [3] = indicative IC50, Table 2A, ATP 1.0 uM
# Sequence of SIK2 (Q9H0K1 whole entry): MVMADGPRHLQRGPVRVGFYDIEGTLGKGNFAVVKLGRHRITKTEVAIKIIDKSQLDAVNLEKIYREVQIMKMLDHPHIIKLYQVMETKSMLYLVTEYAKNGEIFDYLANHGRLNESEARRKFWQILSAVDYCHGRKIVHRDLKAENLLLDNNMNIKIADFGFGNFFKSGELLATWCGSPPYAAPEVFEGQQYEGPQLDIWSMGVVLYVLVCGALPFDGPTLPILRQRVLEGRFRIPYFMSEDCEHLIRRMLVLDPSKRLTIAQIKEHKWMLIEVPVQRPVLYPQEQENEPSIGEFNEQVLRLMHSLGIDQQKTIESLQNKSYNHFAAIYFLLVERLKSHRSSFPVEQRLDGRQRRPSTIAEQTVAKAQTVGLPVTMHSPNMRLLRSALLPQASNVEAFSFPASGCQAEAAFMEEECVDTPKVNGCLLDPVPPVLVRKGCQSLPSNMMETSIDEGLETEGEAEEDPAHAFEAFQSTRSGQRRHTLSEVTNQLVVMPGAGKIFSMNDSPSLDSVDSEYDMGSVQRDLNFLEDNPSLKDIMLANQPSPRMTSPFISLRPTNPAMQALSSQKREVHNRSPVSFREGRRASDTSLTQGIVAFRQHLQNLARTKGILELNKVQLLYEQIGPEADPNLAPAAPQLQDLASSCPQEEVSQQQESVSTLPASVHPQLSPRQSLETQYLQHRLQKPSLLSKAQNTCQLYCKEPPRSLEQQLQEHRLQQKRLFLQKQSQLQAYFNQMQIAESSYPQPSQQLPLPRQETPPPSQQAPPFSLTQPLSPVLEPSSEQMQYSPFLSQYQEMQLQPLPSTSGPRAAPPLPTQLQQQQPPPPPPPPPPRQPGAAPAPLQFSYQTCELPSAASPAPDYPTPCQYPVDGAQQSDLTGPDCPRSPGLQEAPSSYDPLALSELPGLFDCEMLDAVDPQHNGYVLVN
# Sequence of SIK3 (Q9Y2K2 whole entry): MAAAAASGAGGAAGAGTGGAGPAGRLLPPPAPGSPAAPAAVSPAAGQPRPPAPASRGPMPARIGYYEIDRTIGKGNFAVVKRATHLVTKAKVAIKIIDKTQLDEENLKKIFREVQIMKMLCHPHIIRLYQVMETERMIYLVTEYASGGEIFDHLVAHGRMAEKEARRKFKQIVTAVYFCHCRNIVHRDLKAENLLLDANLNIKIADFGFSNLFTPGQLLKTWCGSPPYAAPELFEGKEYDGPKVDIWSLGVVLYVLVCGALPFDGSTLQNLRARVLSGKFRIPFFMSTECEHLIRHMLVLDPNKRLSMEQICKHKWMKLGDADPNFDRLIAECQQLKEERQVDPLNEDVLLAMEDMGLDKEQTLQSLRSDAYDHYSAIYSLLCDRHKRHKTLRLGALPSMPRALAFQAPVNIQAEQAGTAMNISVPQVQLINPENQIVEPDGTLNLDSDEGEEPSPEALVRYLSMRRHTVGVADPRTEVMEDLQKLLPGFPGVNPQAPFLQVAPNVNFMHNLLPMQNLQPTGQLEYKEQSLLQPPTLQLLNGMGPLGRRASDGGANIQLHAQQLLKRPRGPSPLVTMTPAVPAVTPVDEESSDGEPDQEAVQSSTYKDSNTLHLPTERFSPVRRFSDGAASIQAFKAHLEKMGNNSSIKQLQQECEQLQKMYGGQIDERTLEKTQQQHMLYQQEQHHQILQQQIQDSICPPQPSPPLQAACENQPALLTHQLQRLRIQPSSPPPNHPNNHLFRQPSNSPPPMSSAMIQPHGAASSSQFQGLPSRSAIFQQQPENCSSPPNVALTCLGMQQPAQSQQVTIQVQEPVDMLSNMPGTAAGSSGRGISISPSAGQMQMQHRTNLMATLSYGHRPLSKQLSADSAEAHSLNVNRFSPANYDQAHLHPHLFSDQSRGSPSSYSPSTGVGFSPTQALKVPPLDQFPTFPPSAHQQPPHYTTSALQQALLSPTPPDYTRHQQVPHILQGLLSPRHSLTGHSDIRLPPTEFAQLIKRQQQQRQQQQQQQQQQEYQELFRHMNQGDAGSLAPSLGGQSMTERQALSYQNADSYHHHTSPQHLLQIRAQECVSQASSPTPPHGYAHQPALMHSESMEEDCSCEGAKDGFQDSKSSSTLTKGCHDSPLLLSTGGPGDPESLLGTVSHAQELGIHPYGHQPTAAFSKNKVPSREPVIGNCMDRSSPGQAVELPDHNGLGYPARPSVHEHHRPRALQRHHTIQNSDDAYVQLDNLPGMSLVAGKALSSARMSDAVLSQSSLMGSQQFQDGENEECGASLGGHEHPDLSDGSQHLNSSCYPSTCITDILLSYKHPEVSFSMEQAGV
# Sequence of SIK1 (P57059 whole entry): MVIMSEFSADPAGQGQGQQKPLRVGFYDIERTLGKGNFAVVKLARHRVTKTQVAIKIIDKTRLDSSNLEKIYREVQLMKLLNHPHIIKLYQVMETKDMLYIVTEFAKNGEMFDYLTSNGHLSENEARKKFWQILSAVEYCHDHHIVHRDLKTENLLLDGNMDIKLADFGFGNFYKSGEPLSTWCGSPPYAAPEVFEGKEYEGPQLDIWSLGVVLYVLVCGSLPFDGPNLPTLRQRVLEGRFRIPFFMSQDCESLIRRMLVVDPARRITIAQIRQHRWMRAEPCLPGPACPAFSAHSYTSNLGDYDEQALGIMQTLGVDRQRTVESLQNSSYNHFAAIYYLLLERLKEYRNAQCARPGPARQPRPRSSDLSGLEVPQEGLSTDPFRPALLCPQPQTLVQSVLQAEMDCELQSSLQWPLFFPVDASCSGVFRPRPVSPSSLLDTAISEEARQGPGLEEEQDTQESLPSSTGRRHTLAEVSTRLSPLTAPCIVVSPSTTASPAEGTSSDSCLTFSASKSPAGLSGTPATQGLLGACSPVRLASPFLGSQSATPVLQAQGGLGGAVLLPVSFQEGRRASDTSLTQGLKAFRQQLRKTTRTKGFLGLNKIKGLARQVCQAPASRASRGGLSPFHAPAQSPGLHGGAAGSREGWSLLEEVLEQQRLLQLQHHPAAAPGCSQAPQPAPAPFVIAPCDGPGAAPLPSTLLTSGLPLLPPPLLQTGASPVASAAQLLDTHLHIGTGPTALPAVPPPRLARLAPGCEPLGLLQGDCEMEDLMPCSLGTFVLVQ
# Sequence of SRC (GST-HIS-tag) (P12931 whole entry, looked up): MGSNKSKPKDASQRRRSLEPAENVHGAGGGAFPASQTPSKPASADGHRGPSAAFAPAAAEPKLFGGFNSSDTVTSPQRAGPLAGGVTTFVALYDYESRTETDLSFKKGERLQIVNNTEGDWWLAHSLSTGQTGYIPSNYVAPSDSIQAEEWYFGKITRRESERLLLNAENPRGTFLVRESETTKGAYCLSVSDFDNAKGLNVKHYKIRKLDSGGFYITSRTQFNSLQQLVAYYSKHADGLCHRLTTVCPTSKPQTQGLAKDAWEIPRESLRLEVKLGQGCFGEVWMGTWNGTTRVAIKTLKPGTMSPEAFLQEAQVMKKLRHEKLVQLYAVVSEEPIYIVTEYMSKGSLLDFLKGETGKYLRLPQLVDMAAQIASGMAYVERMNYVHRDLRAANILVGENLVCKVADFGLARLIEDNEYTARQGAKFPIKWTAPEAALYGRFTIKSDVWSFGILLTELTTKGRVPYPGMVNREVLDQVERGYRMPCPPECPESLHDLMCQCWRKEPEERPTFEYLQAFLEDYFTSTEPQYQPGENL
# Sequence of ABL1 wt (P00519 whole entry): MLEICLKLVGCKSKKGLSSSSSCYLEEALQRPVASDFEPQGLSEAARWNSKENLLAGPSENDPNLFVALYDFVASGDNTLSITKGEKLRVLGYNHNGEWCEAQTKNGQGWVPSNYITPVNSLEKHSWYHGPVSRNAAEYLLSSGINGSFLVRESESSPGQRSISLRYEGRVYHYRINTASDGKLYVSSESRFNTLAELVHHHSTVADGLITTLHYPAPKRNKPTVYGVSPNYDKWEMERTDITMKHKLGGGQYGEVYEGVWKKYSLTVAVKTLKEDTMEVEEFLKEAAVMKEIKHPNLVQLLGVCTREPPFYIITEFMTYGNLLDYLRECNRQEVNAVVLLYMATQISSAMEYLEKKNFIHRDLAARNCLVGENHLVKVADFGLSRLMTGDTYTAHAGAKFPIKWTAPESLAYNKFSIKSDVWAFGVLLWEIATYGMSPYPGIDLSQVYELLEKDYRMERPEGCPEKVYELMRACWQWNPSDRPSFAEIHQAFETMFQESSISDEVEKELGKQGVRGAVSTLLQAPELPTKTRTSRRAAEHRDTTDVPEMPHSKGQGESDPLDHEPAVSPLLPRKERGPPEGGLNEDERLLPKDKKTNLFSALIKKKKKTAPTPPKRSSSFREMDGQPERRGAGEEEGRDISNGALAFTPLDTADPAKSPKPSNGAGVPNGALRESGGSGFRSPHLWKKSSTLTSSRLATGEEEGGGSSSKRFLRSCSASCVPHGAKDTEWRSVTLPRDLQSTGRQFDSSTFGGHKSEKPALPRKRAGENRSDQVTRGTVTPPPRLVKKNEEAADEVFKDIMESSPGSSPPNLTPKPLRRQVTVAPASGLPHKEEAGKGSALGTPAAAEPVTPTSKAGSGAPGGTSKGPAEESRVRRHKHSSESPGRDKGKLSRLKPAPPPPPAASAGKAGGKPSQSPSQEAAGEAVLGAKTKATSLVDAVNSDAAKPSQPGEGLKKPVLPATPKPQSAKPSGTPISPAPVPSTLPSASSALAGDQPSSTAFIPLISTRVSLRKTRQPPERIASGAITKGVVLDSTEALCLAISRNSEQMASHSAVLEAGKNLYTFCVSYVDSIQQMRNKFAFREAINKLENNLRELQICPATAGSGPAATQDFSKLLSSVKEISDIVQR
molecule,measurement,setting,value
"Cc1nc(Nc2ncc(C(=O)Nc3ccccc3S(=O)(=O)C(C)C)s2)cc(N2CCN(CCO)CC2)n1 [Compound A6, 2-((6-(4-(2-hydroxyethyl)piperazin-1-yl)-2-methylpyrimidin-4-yl)amino)-N-(2-(propane-2-sulfonyl)phenyl)thiazole-5-carboxamide]",IC50,"SIK2; indicative IC50, Table 2A",> 100 nM
same,IC50,SIK3; [3],> 1000 nM
same,IC50,"SIK1; indicative IC50, Table 2A",> 1000 nM
same,tumour cell survival (RLU),M579-A2-luc tumour cells,remains unaffected
"Cc1nc(Nc2ncc(C(=O)Nc3ccccc3)s2)cc(N2CCN(CCO)CC2)n1 [Compound A11, ((6-(4-(2-hydroxyethyl)piperazin-1-yl)-2-methylpyrimidin-4-yl)amino)-N-phenylthiazole-5-carboxamide]",IC50,"SIK2; indicative IC50, Table 2A",> 100 nM
same,IC50,SIK3; [3],> 1000 nM
same,IC50,"SIK1; indicative IC50, Table 2A",> 100 nM
same,tumour cell survival (RLU),M579-A2-luc tumour cells,remains unaffected
"CCOc1cccc(Cl)c1NC(=O)c1cnc(Nc2cc(N3CCN(CCO)CC3)nc(C)n2)s1 [Compound B8, N-(2-chloro-6-ethoxyphenyl)-2-((6-(4-(2-hydroxyethyl)piperazin-1-yl)-2-methylpyrimidin-4-yl)amino)thiazole-5-carboxamide]",IC50,ABL1 wt,< 100 nM
same,IC50,"SIK2; indicative IC50, Table 4",> 1000 nM
same,IC50,SIK3,> 5000 nM
same,IC50,SRC (GST-HIS-tag),< 100 nM
same,IC50,"SIK1; indicative IC50, Table 4",> 1000 nM
same,cytotoxicity of M579 A2 cells in combination with TNF compared to inhibitor alone,"M579-A2-luc tumour cells; TNF 10 ng/mL, inhibitor between about 10 and 100 nM, FIG. 17",fails to exhibit cytotoxicity
"COc1cc(Nc2c(C#N)cnc3cc(OCCCN4CCN(C)CC4)c(OC)cc23)c(Cl)cc1Cl [bosutinib, 3-Quinolinecarbonitrile, 4-[(2,4-dichloro-5-methoxyphenyl)amino]-6-methoxy-7-[3-(4-methyl-1-piperazinyl)propoxy]-, hydrate (1:1)]",sensitivity to TILs and/or TNF-mediated tumour lysis (cytotoxicity to viability ratio in Luc-CTL assay),PANC-1 tumour cells [1],remarkable increase in sensitivity to TILs and/or TNF-mediated tumour lysis
HG-9-91-01,sensitivity to TILs and/or TNF-mediated tumour lysis (cytotoxicity to viability ratio in Luc-CTL assay),PANC-1 tumour cells [2],remarkable increase in sensitivity to TILs and/or TNF-mediated tumour lysis
"shSIK3: SIK3-specific shRNA, Sigma TRCN0000037452, delivered by lentiviral transduction particles (DNA CCGGGCCAGGCTTTATCTTATCAAACTCGAGTTTGATAAGATAAAGCCTGGCTTTTTG)",T cell-mediated killing,M579 cells,increased killing efficacy
same,tumour growth kinetic,"M579 tumours; PBS-treated, shCtrl versus shSIK3",no difference in the tumour growth kinetic
same,tumour growth,"M579 tumours; s.c. tumours, TIL209 i.v. once per week, compared to shCtrl",retardation of tumour growth

# Reference: US20250340886A1, “INTRACELLULAR KINASE ASSOCIATED WITH RESISTANCE AGAINST ANTI-TUMOUR IMMUNE RESPONSES, AND USES THEREOF” (iOmx Therapeutics AG, priority 2017, published 2025)
